Assay results published in ChEMBL document CHEMBL1201862, “PubChem BioAssay data set” (2004).
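Where inhibition never reached the appropriate level, the endpoint shown equals the highest concentration tested. Otherwise, values were interpolated linearly from a five-concentration, 48-hour dose response in 96-well plates. Here, GI50 denotes the concentration required for 50% inhibition of growth.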 Active and inactive are the calls of the source. No stated cut-off is given here; in the data, active = GI50 up to about 1.1 µM and inactive = higher.

What was measured:
Assay in all cases: NCI-60 cell line screen, 48 h
CAKI-1 = system: CAKI-1
DU-145 = system: DU-145
SN12C = system: SN12C
MCF7 = system: MCF7
786-0 = system: 786-0
OVCAR-4 = system: OVCAR-4
SF-295 = system: SF-295
SK-MEL-2 = system: SK-MEL-2
SK-MEL-5 = system: SK-MEL-5
IGROV-1 = system: IGROV-1
NCI/ADR-RES = system: NCI/ADR-RES
HOP-92 = system: HOP-92
NCI-H226 = system: NCI-H226
SF-539 = system: SF-539
SNB-75 = system: SNB-75
A498 = system: A498
HCT-116 = system: HCT-116
SF-268 = system: SF-268
HL-60 = system: HL-60
U-251 = system: U-251
SNB-19 = system: SNB-19
HOP-62 = system: HOP-62
MDA-MB-231 = system: MDA-MB-231
RPMI-8226 = system: RPMI-8226
LOX IMVI = system: LOX IMVI
COLO 205 = system: COLO 205
OVCAR-5 = system: OVCAR-5
T47D = system: T47D
NCI-H23 = system: NCI-H23
UACC-257 = system: UACC-257
EKVX = system: EKVX
NCI-H522 = system: NCI-H522
SR = system: SR
SK-MEL-28 = system: SK-MEL-28
HCT-15 = system: HCT-15
BT-549 = system: BT-549
HT-29 = system: HT-29
CCRF-CEM = system: CCRF-CEM
SK-OV-3 = system: SK-OV-3
M14 = system: M14
A549 = system: A549
OVCAR-3 = system: OVCAR-3
Malme-3M = system: Malme-3M
NCI-H460 = system: NCI-H460
MOLT-4 = system: MOLT-4
K562 = system: K562
UACC-62 = system: UACC-62
HCC 2998 = system: HCC 2998
SW-620 = system: SW-620
Hs-578T = system: Hs-578T
OVCAR-8 = system: OVCAR-8
KM12 = system: KM12
PC-3 = system: PC-3
ACHN = system: ACHN
RXF 393 = system: RXF 393
MDA-MB-435 = system: MDA-MB-435
UO-31 = system: UO-31

CCNC(=O)c1cc(/C=C/c2ccc([N+](=O)[O-])o2)nc2ccccc12
GI50 (CAKI-1): 7.96 µM (inactive) | GI50 (DU-145): 2.74 µM (inactive) | GI50 (SN12C): 15.3 µM (inactive) | GI50 (MCF7): 6.4 µM (inactive) | GI50 (786-0): 11.3 µM (inactive) | GI50 (OVCAR-4): > 100 µM (inactive) | GI50 (SF-295): 41.7 µM (inactive) | GI50 (SK-MEL-2): 3.52 µM (inactive) | GI50 (SK-MEL-5): 1.5 µM (inactive) | GI50 (IGROV-1): 5.69 µM (inactive) | GI50 (NCI/ADR-RES): 51.4 µM (inactive) | GI50 (HOP-92): > 22.4 µM (inactive) | GI50 (NCI-H226): 5.15 µM (inactive) | GI50 (SF-539): 23.3 µM (inactive) | GI50 (SNB-75): 22 µM (inactive) | GI50 (A498): 15.5 µM (inactive) | GI50 (HCT-116): 5.4 µM (inactive) | GI50 (SF-268): 23.7 µM (inactive) | GI50 (HL-60): 2.75 µM (inactive) | GI50 (U-251): 71.9 µM (inactive) | GI50 (SNB-19): 54.7 µM (inactive) | GI50 (HOP-62): 19.6 µM (inactive) | GI50 (MDA-MB-231): 14.9 µM (inactive) | GI50 (RPMI-8226): 29.4 µM (inactive) | GI50 (LOX IMVI): 2.85 µM (inactive) | GI50 (COLO 205): 3.8 µM (inactive) | GI50 (OVCAR-5): > 100 µM (inactive) | GI50 (T47D): > 100 µM (inactive) | GI50 (NCI-H23): 16.9 µM (inactive) | GI50 (UACC-257): 3.67 µM (inactive) | GI50 (EKVX): > 58.2 µM (inactive) | GI50 (NCI-H522): 4.21 µM (inactive) | GI50 (SR): 1.38 µM (inactive) | GI50 (SK-MEL-28): 5.32 µM (inactive) | GI50 (HCT-15): 3.88 µM | GI50 (BT-549): 29.8 µM (inactive) | GI50 (HT-29): 6.82 µM (inactive) | GI50 (CCRF-CEM): 3.18 µM (inactive) | GI50 (SK-OV-3): 33.6 µM (inactive) | GI50 (M14): 2.34 µM (inactive) | GI50 (A549): 24.2 µM (inactive) | GI50 (OVCAR-3): > 62.4 µM (inactive) | GI50 (Malme-3M): 15.7 µM (inactive) | GI50 (NCI-H460): 1.8 µM (inactive) | GI50 (MOLT-4): 0.276 µM (active) | GI50 (K562): 6.79 µM (inactive) | GI50 (UACC-62): 32.1 µM (inactive) | GI50 (HCC 2998): 5.26 µM (inactive) | GI50 (SW-620): 13.7 µM (inactive) | GI50 (Hs-578T): 63.7 µM (inactive) | GI50 (OVCAR-8): 15.8 µM (inactive) | GI50 (KM12): 98.6 µM (inactive) | GI50 (PC-3): > 100 µM (inactive) | GI50 (ACHN): 2.26 µM (inactive) | GI50 (RXF 393): 10.2 µM (inactive) | GI50 (MDA-MB-435): 2.19 µM (inactive) | GI50 (UO-31): 50.5 µM (inactive)
